Source: patent publication US20040127435A1, “Uses for inhibitors of inosine monophosphate dehydrogenase” (REGENTS OF THE UNIVERSITY OF CALIFORNIA, priority 2002, published 2004)
“Also recorded” adds a separate entry of the source. Where two headings read alike, the source gives them in different places.

Legend:
CLL cells [1] = assay: CLL cell viability by MTT dye assay; format: cell-based; details: Homo sapiens, 24 h, read-out: cell viability
Procedure: Indanocine is commercially available from Calbiochem (Cat. No. 402080). Leoni L. M., et al., J Natl Cancer Inst. 92:217-224 (2000). Hua X. H., et al., Cancer Res. 61:7248-7254 (2001). CLL cells were isolated and cultured as described above. CLL cells at a density of 1×10^6 ml were incubated for 24 hours in RPMI 1640 medium supplemented with 10% fetal bovine serum in the presence of 1 μM indanocine (abbreviated 178) and either 0, 1, or 10 μM mizoribine. Cell viability was assessed by the MTT [3-(4,5-dimethylthiazol-2-yl)-2,5-diphenyltetrazolium bromide) dye assay.

[2] = tested on: MTAP-deleted lung cancer cells (A549); assay: Cell proliferation of MTAP-deleted A549 cells by MTT assay, mizoribine base pre-treatment then L-alanosine; format: cell-based; details: Homo sapiens
Procedure: MTAP-deleted lung cancer cells (A549) were pre-treated for 24 hours with control vehicle (square), or the indicated concentrations of mizoribine-base (10 μM, 25 μM and 50 μM). After 24 hours in culture L-alanosine was added at decreasing concentrations (½ dilutions) starting at 40 μM. Cell were then incubated for an additional 48 hours. Cell proliferation was tested by the MTT assay. As indicated by FIG. 4, the IC50 and IC90 (amount of drug needed to block proliferation by 50% or 90%) of L-alanosine declines in the presence of mizoribine base.

[3] = in vivo; cited from earlier work
[4] = tested on: MTAP-deleted chronic myelogenous leukemia cells (K562); assay: Cell proliferation of MTAP-deleted K562 cells by MTT dye assay; format: cell-based; details: read-out: IC50 (amount of drug needed to block proliferation by 50%)
Procedure: MTAP-deleted chronic myelogenous leukemia cells (K562) were pre-treated for the indicated times (24, 48, 72 hours) with concentrations of mizoribine (squares) or mizoribine base (triangles) from 200 μM to 0.5 μM. At the end of the incubation time cell proliferation was tested by the MTT dye assay. As indicated by FIG. 3, the IC50 (amount of drug needed to block proliferation by 50%) of mizoribine or its base progressively declines as the time of exposure to drug increases. After 48 hours of incubation with mizoribine or mizoribine base, the IC50 for the drug is approximately 100 micromolar. After 72 hours of incubation with mizoribine or mizoribine base, the IC50 for the drug is approximately 10 micromolar.

activated PBL = assay: α-tubulin polymerization assay in PBL activated with anti-CD3 and anti-CD28 antibodies; format: cell-based, human; details: PBL activated 24 hrs with anti-CD3 and anti-CD28, paclitaxel for one hour
Procedure: (§1) Peripheral blood from CLL patients or normal donors was layered on top of Ficoll-Paque Plus (Pharmacia, NJ) and centrifuged at 1200×g for twenty minutes. The enriched peripheral blood mononuclear cells (PBL) were washed several times with Ca++, Mg++-free HBSS.
(§2) All primary cells were cultured in RPMI 1640 medium with 20% fetal bovine serum (regular medium) at a density of 2-5×10^6 cell/ml. In some cases, the PBL were stimulated for 24 hours with 1 μg/ml anti-CD3 and anti-CD28 antibodies (Alexis, San Diego, Calif.) prior to immunoblot analysis.
(§3) α-tubulin Polymerization Assay. For each data point, 2×10^6 of cells were incubated in 2 ml of regular medium containing drugs for various periods of time. The cells were then washed twice at room temperature, and resuspended in 50 μl of α-tubulin extraction buffer (1 mM MgC2, 2 m MEGTA, 0.5% NP-40, 20 mM Tris-HCl, pH=6.8) supplemented with 2 mM phenylmethysulfonyl fluoride, and a protease inhibitor cocktail (Sigma). After a brief but vigorous vortex, the lysates were incubated at room temperature for 5 minutes, and then centrifuged at 16,000×g for 5 minutes to separate the soluble from polymerized α-tubulin. The supernatant and pellet fractions were resolved on 10-20% pre-cast tris-glycine gels (Novex, San Diego, Calif.) and then subjected to immune blotting with a specific anti-α-tubulin antibody. […]

[5] = tested on: normal PBL (peripheral blood mononuclear cells); assay: α-tubulin polymerization assay in normal PBL (soluble vs particulate fraction, immunoblot); format: cell-based, human; details: normal resting PBL, paclitaxel for one hour
Procedure: as §1, §2, §3

CLL cells [6] = assay: α-tubulin polymerization assay in CLL cells; format: cell-based, human; details: paclitaxel
Procedure: Lymphocyte Cultures. The Institutional Review Board of the University of California, San Diego approved this study, and all patients gave informed written consent to participation. Subjects had CLL according to National Cancer Institute (NCI) criteria of any Rai stage. None of the patients were in active chemotherapeutic treatments. Flow cytometric analysis determined that all specimens contained more than 90% CD5+CD19+B cells.
as §1, §2
α-tubulin Polymerization Assay. For each data point, 2×10^6 of cells were incubated in 2 ml of regular medium containing drugs for various periods of time. The cells were then washed twice at room temperature, and resuspended in 50 μl of α-tubulin extraction buffer (1 mM MgC2, 2 m MEGTA, 0.5% NP-40, 20 mM Tris-HCl, pH=6.8) supplemented with 2 mM phenylmethysulfonyl fluoride, and a protease inhibitor cocktail (Sigma). […]

[7] = A549, 48 h, A549, without mizoribine base, 48 hours L-alanosine
[8] = A549, A549, 24 hours pre-treatment with 10 micromolar mizoribine base
[9] = A549, A549, 24 hours pre-treatment with 25 micromolar mizoribine base
[10] = A549, A549, 24 hours pre-treatment with 50 micromolar mizoribine base

Work on COc1cc2c(c(N)c1OC)C(=O)/C(=C\c1cc(C)c(O)c(C)c1)C2 [indanocine] yielded a viability at 1 µM (CLL cells [1]) of 24%.

In the case of N[C@@H](CN(O)N=O)C(=O)O [L-alanosine], the IC50 [2, 7] is reported as 0.5 µM, the IC90 [2, 7] is reported as 20 µM and the IC50 [2, 8] is reported as 0.5 µM. It also gave an IC90 [2, 8] of 9 µM, an IC50 [2, 9] of 0.25 µM and an IC90 [2, 9] of 6 µM. For the same compound, the IC50 [2, 10] was 0.15 µM and the IC90 [2, 10] was 4 µM.

In the case of NC(=O)c1ncn([C@@H]2O[C@H](CO)[C@@H](O)[C@H]2O)c1O [mizoribine], the viability at 1 µM (CLL cells [1]) is listed as 55%, the viability at 10 µM (CLL cells [1]) is listed as 45% and the plasma half life [3] is listed as “a few hours”. It also gave an IC50 ([4]; Homo sapiens, K562, 48 hours of incubation) of ~100 µM and an IC50 ([4]; Homo sapiens, K562, 72 hours of incubation) of ~10 µM.

In the case of CC(=O)O[C@H]1C(=O)[C@@]2(C)[C@H]([C@H](OC(=O)c3ccccc3)[C@]3(O)C[C@H](OC(=O)[C@H](O)[C@@H](NC(=O)c4ccccc4)c4ccccc4)C(C)=C1C3(C)C)[C@]1(OC(C)=O)CO[C@@H]1C[C@@H]2O [paclitaxel], the “α-tubulin in the particulate fraction after treatment” value (shortened to “α-tubulin in the particulate fraction”) (activated PBL) is reported as “most of the α-tubulin shifted to the particulate fraction; also recorded: a shift of α-tubulin to the particulate-bound fraction”, the “α-tubulin in the particulate fraction” value [5] is reported as “only a minimal increase of α-tubulin in the particulate fraction; also recorded: did not change this pattern” and the “α-tubulin in the particulate fraction” value (CLL cells [6]) is reported as “nearly complete relocalization of α-tubulin to the particulate fraction”.

For NC(=O)c1[nH]cnc1O [mizoribine base, mizoribine aglycone], the IC50 ([4]; K562, 48 hours of incubation) was ~100 µM and the IC50 ([4]; K562, 72 hours of incubation) was ~10 µM.
